Source: ChEMBL document CHEMBL6115002, “Discovery of novel sitolactone derivative leading to PANoptosis and differentiation of acute myeloid leukemia cells” (Eur J Med Chem, 2025)
Calls of active or inactive are those of the source. No cut-off for these calls is given here.

Experiments:
[1] = Induction of cell cycle arrest in mouse WEHI-3 cells assessed as increase in accumulation of cells at S phase at 1 uM incubated for 24 hrs by propidium iodide staining based flow cytometric analysis (reference value: 51.22%); format: functional
Kasumi 1 = experiment: Disruption of carbon metabolic pathway in human Kasumi 1 cells by KEGG enrichment analysis; format: functional, cell-based

C=C1C[C@@H]2[C@@H](CC[C@]3(C)[C@@H](O[Si](C(C)C)(C(C)C)C(C)C)CC[C@@H]23)OC1=O
Activity [1]: 32.07%
Activity (Kasumi 1): Active
